Measurements published in US20110039901A1, “PROCESS FOR PREPARING A CRYSTALLINE FORM COMPOUND OF 3-BENZYL-2-METHYL-2,3,3a,4,5,6,7,7a-OCTAHYDROBENZO[d]ISOXAZOL-4-ONE” (Abiogen Pharma S.P.A., priority 2008, published 2011).

Assay: stability of the hydrochloride salt at elevated temperature
Assay type: physicochemical
Conditions: at temperatures above 30° C.

SMILES: CN1OC2CCCC(=O)C2C1Cc1ccccc1.Cl (stereo not shown) [hydrochloride salt of BTG 1640]
- stability at temperature: unstable
